According to paper PMC7380196, “Unveiling the activation dynamics of a fold-switch bacterial glycosyltransferase by ^19F NMR” (The Journal of Biological Chemistry, 2020):

Target: T1, PimA (Mycolicibacterium smegmatis, UniProt A0QWG6)
T1 construct: recombinant from pET29a-pimA in E. coli BL21(DE3) pLysS; purified
T1 sequence (A0QWG6 1-386): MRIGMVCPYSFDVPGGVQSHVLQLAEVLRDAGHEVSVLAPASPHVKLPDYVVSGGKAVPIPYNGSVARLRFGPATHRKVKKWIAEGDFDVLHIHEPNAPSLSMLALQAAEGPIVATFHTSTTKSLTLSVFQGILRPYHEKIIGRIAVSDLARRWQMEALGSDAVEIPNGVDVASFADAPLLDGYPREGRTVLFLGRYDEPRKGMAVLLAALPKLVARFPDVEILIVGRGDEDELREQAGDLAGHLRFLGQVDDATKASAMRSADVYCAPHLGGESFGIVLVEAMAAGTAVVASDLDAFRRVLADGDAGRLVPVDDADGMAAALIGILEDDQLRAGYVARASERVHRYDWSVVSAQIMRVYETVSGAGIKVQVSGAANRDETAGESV
Assay: thermal unfolding by far-UV CD at […] nm
Assay type: binding
Details: 10 mM Tris-HCl, pH 7.5; 10 uM protein, ligand 1:15

Question: How did the Tm turn out when `Nc1nc2c(ncn2[C@@H]2O[C@H](COP(=O)(O)OP(=O)(O)O)[C@@H](O)[C@H]2O)c(=O)[nH]1` [GDP] was run?
Answer: after the addition of GDP, wild-type PimA, PimA^R144C, and PimA^R144C-TFA displayed a clear increase
